Measured values published in the supplement of paper PMC10307832.

Experiments:
Test in all cases: relative viability (nuclei count vs DMSO), 5 days (fraction); higher = more cells survive
CX-5461 + Palbociclib = compound: Cc1cnc(CNC(=O)c2c(=O)c3ccc(N4CCCN(C)CC4)nc3n3c2sc2ccccc23)cn1 [CX-5461] + CC(=O)c1c(C)c2cnc(Nc3ccc(N4CCNCC4)cn3)nc2n(C2CCCC2)c1=O [Palbociclib] (partner 0.5 µM)
Method in brief: (§1)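 Relative viability divides the nuclei count in treated wells by that in vehicle wells. Lung cancer cell lines were seeded in 1536-well plates, dosed by pin tool the next day, and fixed and stained after 5 days in one step with final 0.05% Triton X-100, 1% formaldehyde and 1 ug/ml Hoechst. Dosing was a single drug or a fixed anchor-drug dose plus five library-drug doses (not always all listed) in √10 steps, and values are medians of duplicate plates imaged at 4×.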

CX-5461 + Alpelisib = compound: Cc1cnc(CNC(=O)c2c(=O)c3ccc(N4CCCN(C)CC4)nc3n3c2sc2ccccc23)cn1 [CX-5461] + Cc1nc(NC(=O)N2CCC[C@H]2C(N)=O)sc1-c1ccnc(C(C)(C)C(F)(F)F)c1 [Alpelisib] (partner 2 µM)
Method in brief: as §1

IMD-0354 + Pictilisib = compound: O=C(Nc1cc(C(F)(F)F)cc(C(F)(F)F)c1)c1cc(Cl)ccc1O [IMD-0354] + CS(=O)(=O)N1CCN(Cc2cc3nc(-c4cccc5[nH]ncc45)nc(N4CCOCC4)c3s2)CC1 [Pictilisib] (partner 1 µM)
Method in brief: as §1

IMD-0354 + Pemetrexed = compound: O=C(Nc1cc(C(F)(F)F)cc(C(F)(F)F)c1)c1cc(Cl)ccc1O [IMD-0354] + Nc1nc2[nH]cc(CCc3ccc(C(=O)N[C@@H](CCC(=O)O)C(=O)O)cc3)c2c(=O)[nH]1 [Pemetrexed] (partner 0.2 µM)
Method in brief: as §1

Cell Line	relative viability (CX-5461 + Palbociclib; first compound 0.01 µM)	relative viability (CX-5461 + Palbociclib; first compound 0.03162 µM)	relative viability (CX-5461 + Palbociclib; first compound 0.1 µM)	relative viability (CX-5461 + Palbociclib; first compound 1 µM)	relative viability (CX-5461 + Alpelisib; first compound 0.01 µM)	relative viability (CX-5461 + Alpelisib; first compound 0.03162 µM)	relative viability (CX-5461 + Alpelisib; first compound 0.1 µM)	relative viability (CX-5461 + Alpelisib; first compound 1 µM)	relative viability (IMD-0354 + Pictilisib; first compound 0.04 µM)	relative viability (IMD-0354 + Pictilisib; first compound 0.1265 µM)	relative viability (IMD-0354 + Pictilisib; first compound 0.4 µM)	relative viability (IMD-0354 + Pictilisib; first compound 1.265 µM)	relative viability (IMD-0354 + Pictilisib; first compound 4 µM)	relative viability (IMD-0354 + Pemetrexed; first compound 0.04 µM)	relative viability (IMD-0354 + Pemetrexed; first compound 0.1265 µM)	relative viability (IMD-0354 + Pemetrexed; first compound 0.4 µM)	relative viability (IMD-0354 + Pemetrexed; first compound 1.265 µM)	relative viability (IMD-0354 + Pemetrexed; first compound 4 µM)	relative viability (CX-5461 + Palbociclib; first compound 0.3162 µM)	relative viability (CX-5461 + Alpelisib; first compound 0.3162 µM)
EPLC-272H	0.309	0.322	0.324	0.352	0.974	1.06	0.961	0.876	0.327	0.265	0.231	0.264	0.103	0.332	0.278	0.474	0.247	0.214		
NCI-H1915	0.542	0.534	0.564	0.543	1.07	1.12	1.09	1.03	0.68	1.02	0.671	0.33	0.199	0.557	0.469	0.357	0.399	0.163	0.53	1.04
NCI-H2405	0.515	0.549	0.547	0.45	0.851	0.871	0.907	0.624	0.536	0.521	0.34	0.306	0.172	1.16	0.965	0.49	0.271	0.277	0.503	0.525
NCI-H322M	0.471	0.457	0.503	0.434	0.813	0.938	0.846	0.807	0.575	0.519	0.485	0.557	0.446	0.673	0.65	0.543	0.332	0.422	0.429	
NCI-H358	0.135	0.124	0.135	0.084	0.997	0.883	0.413	0.27	0.319	0.31	0.263	0.241	0.22	0.174	0.172	0.175	0.138	0.126	0.0878	0.593
NCI-H1793	0.307	0.306	0.345	0.283	0.769	0.668	0.772	0.726	0.357	0.319	0.235	0.172	0.206	0.971	0.795	0.446	0.191	0.257	0.32	0.71
SK-MES-1	0.299	0.308	0.281	0.249	0.886	0.964	1.08	0.522	0.353	0.363	0.335	0.261	0.226	1.16	1.06	0.466	0.349	0.187	0.342	0.952
NCI-H838	0.231	0.23	0.224	0.253	1	1.05	1.06	0.896	0.559	0.458	0.377	0.247	0.26	0.25	0.229	0.161	0.191	0.167	0.212	0.709
CAL-12T	0.49	0.511	0.448	0.121	1.25	1.17		0.546	0.373	0.548	0.315	0.189	0.178	1.37	0.916	0.574	0.559	0.204	0.347	1.37
